Results: the supplement of paper PMC10307832

Tests used:
Experiment in all cases: relative viability (nuclei count vs DMSO), 5 days (fraction); higher = more cells survive
Axitinib + Luminespib = compound: CNC(=O)c1ccccc1Sc1ccc2c(/C=C/c3ccccn3)n[nH]c2c1 [Axitinib] + CCNC(=O)c1noc(-c2cc(C(C)C)c(O)cc2O)c1-c1ccc(CN2CCOCC2)cc1 [Luminespib] (partner 0.01 µM)
Outline: (§1)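 A single step with final 0.05% Triton X-100, 1% formaldehyde and 1 ug/ml Hoechst fixed the cells and stained nuclei 5 days after treatment. Lung cancer cell lines in 1536-well plates had been treated by pin tool the day after seeding with one drug alone or a fixed anchor-drug dose plus five library-drug doses (not always all listed) in √10 steps, and nuclei were counted on 4× images. Relative viability is the ratio of nuclei in treated wells to nuclei in vehicle wells, taken as the median of duplicate plates.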

Bemcentinib + Luminespib = compound: Nc1nc(Nc2ccc3c(c2)CC[C@@H](N2CCCC2)CC3)nn1-c1cc2c(nn1)-c1ccccc1CCC2 [Bemcentinib] + CCNC(=O)c1noc(-c2cc(C(C)C)c(O)cc2O)c1-c1ccc(CN2CCOCC2)cc1 [Luminespib] (partner 0.01 µM)
Outline: as §1

Bemcentinib + Crizotinib = compound: Nc1nc(Nc2ccc3c(c2)CC[C@@H](N2CCCC2)CC3)nn1-c1cc2c(nn1)-c1ccccc1CCC2 [Bemcentinib] + C[C@@H](Oc1cc(-c2cnn(C3CCNCC3)c2)cnc1N)c1c(Cl)ccc(F)c1Cl [Crizotinib] (partner 1 µM)
Outline: as §1

Bemcentinib + Phenformin = compound: Nc1nc(Nc2ccc3c(c2)CC[C@@H](N2CCCC2)CC3)nn1-c1cc2c(nn1)-c1ccccc1CCC2 [Bemcentinib] + N=C(N)NC(=N)NCCc1ccccc1 [Phenformin] (partner 250 µM)
Outline: as §1

Row | Cell Line | relative viability (Axitinib + Luminespib; first compound 0.005 µM) | relative viability (Axitinib + Luminespib; first compound 0.01581 µM) | relative viability (Axitinib + Luminespib; first compound 0.05 µM) | relative viability (Axitinib + Luminespib; first compound 0.1581 µM) | relative viability (Axitinib + Luminespib; first compound 0.5 µM) | relative viability (Bemcentinib + Luminespib; first compound 0.04 µM) | relative viability (Bemcentinib + Luminespib; first compound 0.1265 µM) | relative viability (Bemcentinib + Luminespib; first compound 0.4 µM) | relative viability (Bemcentinib + Luminespib; first compound 1.265 µM) | relative viability (Bemcentinib + Luminespib; first compound 4 µM) | relative viability (Bemcentinib + Crizotinib; first compound 0.04 µM) | relative viability (Bemcentinib + Crizotinib; first compound 0.1265 µM) | relative viability (Bemcentinib + Crizotinib; first compound 0.4 µM) | relative viability (Bemcentinib + Crizotinib; first compound 1.265 µM) | relative viability (Bemcentinib + Crizotinib; first compound 4 µM) | relative viability (Bemcentinib + Phenformin; first compound 0.04 µM) | relative viability (Bemcentinib + Phenformin; first compound 0.1265 µM) | relative viability (Bemcentinib + Phenformin; first compound 0.4 µM) | relative viability (Bemcentinib + Phenformin; first compound 1.265 µM) | relative viability (Bemcentinib + Phenformin; first compound 4 µM)
1 | NCI-H2009 | 1.11 | 1.12 | 1.02 | 1.07 | 1.16 | 1.07 | 1.04 | 1.13 | 0.997 | 1.03 | 1.01 | 1.08 | 1.11 | 0.951 | 1.05 | 0.497 | 0.544 | 0.489 | 0.466 | 0.418
2 | NCI-H1944 | 0.755 | 0.726 | 0.717 | 0.738 | 0.769 | 0.735 | 0.836 | 0.791 | 0.705 | 0.758 | 1.13 | 1.11 | 1.17 | 1.18 | 1.1 | 0.202 | 0.211 | 0.219 | 0.217 | 0.206
3 | SW 1573 | 0.325 | 0.253 | 0.424 | 0.586 | 0.13 | 0.203 | 0.185 | 0.212 | 0.152 | 0.215 | 0.724 | 0.814 | 0.684 | 0.776 | 0.764 | 0.415 | 0.373 | 0.363 | 0.368 | 0.365
4 | NCI-H1975 | 0.244 | 0.337 | 0.192 | 0.198 | 0.257 | 0.162 | 0.216 | 0.249 | 0.187 | 0.204 | 1.07 | 1.23 | 1.07 | 1.1 | 1.17 | 0.405 | 0.428 | 0.428 | 0.437 | 0.417
5 | NCI-H661 | 0.901 | 0.924 | 0.9 | 0.998 | 0.952 | 0.87 | 0.961 | 0.895 | 0.963 | 0.987 | 0.878 | 0.947 | 0.852 | 0.998 | 1.02 | 0.268 | 0.263 | 0.28 | 0.271 | 0.286
6 | UMC-11 | 1.01 | 1.03 | 1.07 | 1.04 | 1.14 | 0.964 | 1.06 | 1.1 | 0.967 | 1.04 | 0.568 | 0.57 | 0.589 | 0.692 | 0.662 | 0.324 | 0.355 | 0.365 | 0.314 | 0.312
7 | NCI-H520 | 0.228 | 0.239 | 0.23 | 0.222 | 0.284 | 0.248 | 0.191 | 0.252 | 0.23 | 0.303 | 0.53 | 0.823 | 0.912 | 0.971 | 0.686 | 0.573 | 0.606 | 0.608 | 0.733 | 0.62
8 | COR-L23 | 0.667 | 0.614 | 0.744 | 0.631 | 0.749 | 0.628 | 0.903 | 0.807 | 0.827 | 0.913 | 0.65 | 0.787 | 0.729 | 0.784 | 0.56 | 0.425 | 0.44 | 0.449 | 0.465 | 0.493
9 | NCI-H2023 | 0.76 | 0.942 | 0.752 | 0.745 | 0.97 | 0.839 | 0.695 | 1.02 | 0.864 | 0.657 | 0.648 | 0.653 | 0.723 | 0.6 | 0.599 | 0.398 | 0.445 | 0.424 | 0.423 | 0.365
10 | NCI-H1650 | 0.195 | 0.194 | 0.192 | 0.203 | 0.236 | 0.207 | 0.237 | 0.199 | 0.236 | 0.186 | 0.887 | 0.998 | 1.05 | 0.973 | 0.814 | 0.368 | 0.477 | 0.583 | 0.43 | 0.394
11 | HCC-78 | – | – | – | – | – | – | – | – | – | – | 0.322 | 0.344 | 0.334 | 0.334 | 0.328 | 0.639 | 0.656 | 0.742 | – | 0.668
12 | SW 900 | 0.167 | 0.162 | 0.159 | 0.185 | 0.18 | 0.169 | 0.203 | 0.174 | 0.156 | 0.17 | – | – | – | – | – | 0.396 | 0.588 | 0.557 | 0.648 | 0.458
13 | A549 | – | – | – | – | – | – | – | – | – | – | 0.786 | 0.795 | 0.966 | 0.824 | 0.742 | 0.126 | 0.124 | 0.17 | 0.121 | 0.147
14 | NCI-H1623 | 0.519 | 0.602 | 0.444 | 0.538 | 0.481 | 0.498 | 0.547 | 0.588 | 0.481 | 0.467 | – | – | – | – | – | 0.607 | 0.497 | 0.621 | 0.641 | 0.563
15 | NCI-H2342 | 0.896 | 0.763 | 0.59 | 0.756 | 0.726 | 0.689 | 0.762 | 0.679 | 0.83 | 0.794 | – | – | – | – | – | 0.564 | 0.581 | 0.611 | 0.617 | 0.611
16 | NCI-H1299 | – | – | – | – | – | – | – | – | – | – | 0.963 | 0.967 | 1.02 | 0.937 | 0.942 | – | – | – | – | –
17 | NCI-H1793 | 0.148 | 0.23 | 0.16 | 0.187 | 0.169 | 0.211 | 0.179 | 0.169 | – | 0.18 | – | – | – | – | – | 0.395 | 0.463 | 0.384 | – | 0.336
18 | NCI-H1395 | 0.8 | 0.76 | 0.838 | 0.609 | 0.586 | 0.611 | 0.733 | 0.808 | 0.686 | 1 | – | – | – | – | – | 0.406 | 0.43 | 0.434 | 0.451 | 0.446
19 | NCI-H522 | 1.28 | 1.18 | 1.02 | 0.998 | 1.02 | 0.95 | 1.15 | 1.16 | 1.21 | 1.06 | – | – | – | – | – | 0.598 | 0.733 | 0.729 | 0.722 | 0.674
20 | EBC-1 | – | – | – | – | – | – | – | – | – | – | 0.185 | 0.214 | 0.179 | 0.236 | 0.193 | – | – | – | – | –
21 | Calu-6 | – | – | – | – | – | – | – | – | – | – | 0.76 | 0.958 | 1.09 | 0.858 | 0.676 | – | – | – | – | –
22 | NCI-H1703 | – | – | – | – | – | – | – | – | – | – | – | 0.687 | 0.723 | 0.717 | 0.627 | – | – | – | – | –
